Assay results taken from paper PMC12661400, “Oral bioavailable ITRI-148 degrades androgen receptor variants and overcomes antiandrogen resistance in advanced prostate cancer” (Neoplasia (New York, N.Y.), 2025).

How the values were obtained:
AR(H875Y) = biological target: T1, AR(H875Y) (Homo sapiens, UniProt P10275, H875Y); assay: Degradation of ectopic Myc-tagged AR mutant in DU145 cells (western blot); type: cell-based; conditions: 10 μM, 24 hours
T1 construct: expressed in transfected cells; host or cells: DU145
T1 sequence (P10275 1-920 H875Y): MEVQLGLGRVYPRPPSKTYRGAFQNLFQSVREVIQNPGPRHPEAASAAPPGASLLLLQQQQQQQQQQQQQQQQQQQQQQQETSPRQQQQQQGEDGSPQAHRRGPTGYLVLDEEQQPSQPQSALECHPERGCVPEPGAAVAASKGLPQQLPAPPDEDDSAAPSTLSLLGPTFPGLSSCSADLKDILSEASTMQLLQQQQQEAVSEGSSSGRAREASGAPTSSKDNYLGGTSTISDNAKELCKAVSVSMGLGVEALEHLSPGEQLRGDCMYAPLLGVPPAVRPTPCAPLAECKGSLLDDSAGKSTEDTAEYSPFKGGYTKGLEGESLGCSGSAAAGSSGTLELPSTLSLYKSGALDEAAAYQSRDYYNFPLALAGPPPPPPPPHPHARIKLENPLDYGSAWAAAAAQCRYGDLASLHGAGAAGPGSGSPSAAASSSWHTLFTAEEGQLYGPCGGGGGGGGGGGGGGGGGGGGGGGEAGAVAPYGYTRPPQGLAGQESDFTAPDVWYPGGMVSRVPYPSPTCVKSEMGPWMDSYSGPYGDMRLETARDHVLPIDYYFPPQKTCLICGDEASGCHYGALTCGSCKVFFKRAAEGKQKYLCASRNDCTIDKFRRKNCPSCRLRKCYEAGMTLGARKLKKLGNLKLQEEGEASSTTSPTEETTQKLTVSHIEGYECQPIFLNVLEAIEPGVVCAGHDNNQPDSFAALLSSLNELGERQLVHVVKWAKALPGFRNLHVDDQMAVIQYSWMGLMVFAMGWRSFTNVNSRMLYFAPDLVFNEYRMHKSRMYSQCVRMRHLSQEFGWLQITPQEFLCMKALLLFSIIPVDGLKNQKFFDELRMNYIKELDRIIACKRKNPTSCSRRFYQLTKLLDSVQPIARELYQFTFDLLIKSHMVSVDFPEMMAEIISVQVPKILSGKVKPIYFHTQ
Source text: pLenti4/TO/Flag-AR and pLenti4/TO/Flag-AR(∆LBD) plasmids are as described previously. To generate pLenti4/TO/Flag-AR-V7 plasmid, the DNA fragment of AR-V7 was amplified from pEGFP-C1-AR V7, a gift from Michael A Mancini (Addgene plasmid # 86856), and inserted into the pLenti4/TO plasmid carrying a N-terminal Flag tag between BamH1 and XhoI. The AR(L702H) and AR(H875Y) mutants were generated by site-directed mutagenesis of pCMV-Myc-AR, which is previously constructed and described in [22]. Primers used in the cloning and mutagenesis are: […]
Cell lysis, Western blotting, and AR ubiquitination were performed as described in [17]. […]
Fig. 1 ITRI-148 induces degradation of both AR and AR-V7 proteins in CRPC cells. […] AR-V7 expression was detected using an anti-Flag antibody. […] An N-terminal AR antibody was used to detect both full-length AR and LBD-truncated variants (AR-V(ΔLBD)) in CWR22Rv1 cells, while AR-V7 was detected using an AR-V7-specific antibody. DC₅₀ values were calculated from normalized band intensities, and Dₘₐₓ represents the maximal degradation achieved at 10 μM ITRI-148. (D) Immunofluorescence staining of AR after 24 or 48 hours of ITRI-148 treatment, detected using an N-terminal AR antibody. […] Quantified AR levels are as indicated. […]

[1] = Metabolic stability in liver microsomes; type: in vitro ADME; conditions: for Remaining of intact drug (%): 1 μM, incubation up to 60 minutes; for half-life at 1 μM: pH 7.4, read-out: Plasma Stability t1/2 (microsome panel)
Protocol: The metabolic stability of all PROTAC compounds in the screening phase (Table 1) was evaluated using mouse liver microsomes. Incubations were performed at 37 °C in phosphate buffer (pH 7.4) containing NADPH (1 mM), 0.5 mg/mL microsomal protein and 1 μM ITRI-148 (0.25 % DMSO) for 0, 5, 20, or 30 minutes, followed by quenching with acetonitrile (1:3, v/v) for HPLC analysis. To evaluate the species-specific metabolism of ITRI-148, its stability was assessed in liver microsomes from human, dog, rat, and mouse using same incubation conditions as above, with the time extending to 0, 15, 30, 45, and 60 minutes, followed by acetonitrile quenching (1:10) and LC-MS/MS analysis.

[2] = In vitro stability in plasma; type: in vitro ADME; conditions: for Remaining of intact drug (%): 1 μM, incubation up to 4 hours; for half-life at 1 μM: read-out: Plasma Stability t1/2
Protocol: The stability of ITRI-148 was assessed in plasma across four species: humans, dogs, rats, and mice. ITRI-148 added to pre-warmed plasma at 1 μM was maintained at the designated temperature, and aliquots were collected at 0, 0.5, 1, 2, and 4 hours after incubation. At each time point, 20 μL of the samples was taken to terminate the reaction, followed by LC-MS/MS analysis to determine the remaining compound concentration. Data from duplicated experiments was calculated and presented as mean ± SD.

SMILES: O=C1CCC(N2C(=O)c3cccc(NCC(=O)N4CCC(N5CCC(C#Cc6ccc(C7CCN(C8=Nn9c(nnc9C(F)(F)F)CC8)CC7)cc6)CC5)CC4)c3C2=O)C(=O)N1 (stereo not shown) [ITRI-148]
- degradation of Myc-tagged AR mutant H875Y (AR(H875Y)): degraded
- Remaining of intact drug (%) ([1]; dog liver microsomes): 88.3 ± 4.3%
- Remaining of intact drug (%) ([1]; human liver microsomes): 85.9 ± 2.2%
- half-life at 1 μM ([1]; dog liver microsomes): > 1 h
- half-life at 1 μM ([1]; human liver microsomes): > 1 h
- half-life at 1 μM ([1]; rat liver microsomes): > 1 h
- Remaining of intact drug (%) ([1]; rat liver microsomes): 75.3 ± 1.2%
- Remaining of intact drug (%) ([2]; dog plasma): 79.4 ± 0.6%
- half-life at 1 μM ([2]; dog plasma): > 4 h
- Remaining of intact drug (%) ([2]; human plasma): 86.9 ± 5.2%
- half-life at 1 μM ([2]; human plasma): > 4 h
- Remaining of intact drug (%) ([2]; rat plasma): 62.1 ± 5.8%
- half-life at 1 μM ([2]; rat plasma): > 4 h
